Experimental data as given in paper PMC9405102, “Targeted Modification and Structure-Activity Study of GL-29, an Analogue of the Antimicrobial Peptide Palustrin-2ISb” (Antibiotics, 2022).
Where no end group is shown, it is not given here.

Legend:
[1] = test system: K. pneumoniae (ATCC CRM 43816); format: cell-based, Klebsiella pneumoniae; conditions: ATCC CRM 43816, 24 h
Procedure: (§1) The MBIC and MBEC assays were performed to measure the inhibition and eradication of bacterial biofilm in the presence of different concentrations of peptides. Gram-positive bacteria were inoculated in Luria–Bertani (LB) broth at 37 °C overnight whereas Gram-negative bacteria were inoculated in tryptic soy broth (TSB), and then sub-cultured until reaching the logarithmic growth phase by measuring the OD values at a wavelength of 550nm. For the MBIC assay, 99 µL of diluted bacterial suspension (5 × 10^5 CFU/mL) was mixed with 1 µL of prepared peptide solutions in the wells of a round-bottomed 96-well plate, achieving the final concentrations from 512 to 1 µM, and then incubated at 37 °C for 24 h in a shaking incubator at 200 revolutions per minute (rpm). After this, the plate was washed twice by PBS and fixed with methanol for 30 min. For MBEC assay, 100 µL of diluted bacterial suspension (5 × 10^5 CFU/mL) was seeded into a round-bottomed 96-well plate and incubated at 37 °C for 24 h in a shaking incubator at 200 rpm to obtain mature biofilm. After this, plates were washed twice by PBS and incubated with different concentrations of peptide solution from 512 to 1 µM at 37 °C for 24 h. Afterwards, the plate was washed twice with PBS and fixed with methanol for 30 min. Then, both MBIC and MBEC plates were stained by 130 μL of 0.1% (g/v) crystal violet solutions for 30 min and washed with PBS until no apparent staining was observed. Evaporating crystal violet stains were dissolved by 33% (v/v) acetic acid, and the absorbance values were measured by a Synergy HT Microplate Reader (BioTek, Minneapolis, MN, USA) set to 595 nm. The minimum concentration that inhibited the formation of biofilm was defined when compared to the negative control group, as the MBIC. The minimum concentration that eradicated the biofilm was defined, when compared to the negative control group, as the MBEC. The biofilm assays were performed in triplicate.

[2] = test system: P. aeruginosa (ATCC CRM 9027); format: cell-based, Pseudomonas aeruginosa; conditions: ATCC CRM 9027
Procedure: (§2) The antimicrobial activity of the peptides was determined through the minimum inhibitory concentrations (MICs) and the minimum bactericidal concentration (MBCs) using the broth-dilution method in a 96-well plate, as described in the previous study. Six bacteria, including the Gram-positive bacteria, S. aureus (ATCC CRM 6538), MRSA (ATCC CRM 12493) and E. faecalis (NCTC 12697), the Gram-negative bacteria, E. coli (ATCC CRM 8739), K. pneumoniae (ATCC CRM 43816) and P. aeruginosa (ATCC CRM 9027), the yeast, C. albicans (ATCC CRM 10231) and clinical isolates, S. aureus (B042 V2E1 A), MRSA (B038 V1S1 A), E. coli (ATCC BAA-2340) and K. pneumoniae (ATCC BAA-1705) were used in these assays to evaluate the antimicrobial potency of the two peptides by determining their MICs and MBCs. All bacteria were cultured in MHB and the yeast, C. albicans was cultured in YPD broth overnight. Then, the microorganisms were sub-cultured and diluted to the final concentration of 2 × 10^5 CFU/mL to 5 × 10^5 CFU/mL. The Norfloxacin and amphotericin B were used as positive controls for the bacteria and yeast, respectively. The assay was repeated three times, with five replicates at each time.

[3] = test system: MRSA (ATCC CRM 12493); format: cell-based, methicillin-resistant S. aureus; conditions: ATCC CRM 12493
Procedure: as §2

[4] = test system: MRSA (B038 V1S1 A); format: cell-based, methicillin-resistant S. aureus; conditions: B038 V1S1 A
Procedure: as §2

[5] = test system: E. faecalis (NCTC 12697); format: cell-based, Enterococcus faecalis; conditions: NCTC 12697, 24 h
Procedure: as §1

[6] = test system: E. faecalis (NCTC 12697); format: cell-based, Enterococcus faecalis; conditions: NCTC 12697
Procedure: as §2

[7] = test system: E. coli (ATCC BAA-2340); format: cell-based, Escherichia coli; conditions: ATCC BAA-2340
Procedure: as §2

[8] = test system: E. coli (ATCC CRM 8739); format: cell-based, Escherichia coli; conditions: ATCC CRM 8739
Procedure: as §2

[9] = test system: MRSA (ATCC CRM 12493); format: cell-based, methicillin-resistant S. aureus; conditions: ATCC CRM 12493, 24 h
Procedure: as §1

[10] = test system: S. aureus (ATCC CRM 6538); format: cell-based, Staphylococcus aureus; conditions: ATCC CRM 6538
Procedure: as §2

[11] = test system: S. aureus (B042 V2E1 A); format: cell-based, Staphylococcus aureus; conditions: B042 V2E1 A
Procedure: as §2

[12] = test system: P. aeruginosa (ATCC CRM 9027); format: cell-based, Pseudomonas aeruginosa; conditions: ATCC CRM 9027, 24 h
Procedure: as §1

[13] = test system: K. pneumoniae (ATCC CRM 43816); format: cell-based, Klebsiella pneumoniae; conditions: ATCC CRM 43816
Procedure: as §2

[14] = test system: K. pneumoniae (ATCC BAA-1705); format: cell-based, Klebsiella pneumoniae; conditions: ATCC BAA-1705
Procedure: as §2

[15] = test system: E. coli (ATCC CRM 8739); format: cell-based, Escherichia coli; conditions: ATCC CRM 8739, 24 h
Procedure: as §1

[16] = test system: C. albicans (ATCC CRM 10231); format: cell-based, Candida albicans; conditions: ATCC CRM 10231
Procedure: as §2

GLWNSIKIAGKKLFVNVLDKIR-NH2 [GL-22]
MBEC [1]: > 512 µM
MBIC [1]: 16 µM
MBC [2]: 32 µM
MIC [2]: 32 µM
MBC [3]: 8 µM
MIC [3]: 8 µM
MBC [4]: 4 µM
MIC [4]: 4 µM
MBEC [5]: > 512 µM
MBIC [5]: 32 µM
MBC [6]: 32 µM
MIC [6]: 32 µM
MBC [7]: 4 µM
MIC [7]: 2 µM
MBC [8]: 4 µM
MIC [8]: 4 µM
MBEC [9]: > 512 µM
MBIC [9]: 8 µM
MBC [10]: 4 µM
MIC [10]: 4 µM
MBC [11]: 64 µM
MIC [11]: 32 µM
MBEC [12]: > 512 µM
MBIC [12]: 128 µM
MBC [13]: 4 µM
MIC [13]: 4 µM
MBC [14]: 4 µM
MIC [14]: 4 µM
MBEC [15]: > 512 µM
MBIC [15]: 16 µM
MBC [16]: 256 µM
MIC [16]: 128 µM
